# Laboratory results from patent US9114119B2, “Use of serine palmitoyl transferase inhibitors for preventing and delaying inherited retinal degenerations and compositions thereof” (Universita' degli Studi di Milano, priority 2009, dated 2015).
# Tests used:
# [1] = tested on: rd10 and wt mice; test: Toxicity studies of intraocular injections; format: in vivo, mouse
# Description: It should be noted that myriocin has only rarely been used in vivo to date, and never injected intraocularly. The dose was chosen on the basis of the available literature on cultured cells, calculating a dilution of ⅞ times, due to the vitreous humour. A time window was selected for intraocular administration which preceded the peak death of the apoptotic photoreceptors, for the crucial reason of preventing the majority of photoreceptors from entering the apoptotic cycle.
# [2] = tested on: photoreceptors of rd10 mice; conditions: mouse, in vivo
# Description: The functional recovery of the photoreceptors was studied by recording a flash electroretinogram (ERG), a technique widely used to test the retinal physiology of human patients, especially those suffering from RP.
# [3] = tested on: endogenous ceramide in the retina of wt mice; test: Retinal endogenous ceramide levels (diacylglycerol kinase test) after single intravitreal injection, wt mice; format: in vivo, mouse; conditions: single intravitreal injection 500 nanoliters 188 mM at P19, retinas isolated at P21
# Protocol: (§1) The levels of the sphingolipid endogenous ceramide were tested after isolation of the retina from anaesthetised rd10 mutant and wild-type (wt) mice of various age groups. The isolated retinas were treated for lipid extraction, and the total endogenous ceramide/inorganic phosphate ratio was determined with the diacylglycerol kinase test.
# (§2) Single intravitreal injections of 500 nanoliters of myriocin (188 mM) were administered to the right eye of rd10 and wt mice aged P19. The vehicle alone (DMSO) was injected into the left eye of the same animals. The left and right retinas were isolated at P21, and treated separately for the biochemical ceramide test as explained above.
# [4] = tested on: retinal morphology of rd10, wt and Thy1-GFP mice; conditions: mouse, in vivo
# [5] = tested on: endogenous ceramide in the retina of rd10 mutant mice; test: Retinal endogenous ceramide levels (diacylglycerol kinase test) after single intravitreal injection, rd10 mice; format: in vivo, mouse; conditions: single intravitreal injection 500 nanoliters 188 mM at P19, retinas isolated at P21
# Protocol: as §1, §2
# [6] = tested on: pyknotic photoreceptors of rd10 mice; test: Pyknotic photoreceptor count after intravitreal injection; format: in vivo, mouse
# Protocol: as §2
# The animals injected at P19 were collected at P21, and their eyes were enucleated and fixed. The left and right retinas were isolated, stained with fluorescent DNA-binding molecules, and mounted on slides. The external nuclear layer which contains the photoreceptor cores was sampled under the confocal microscope at regular intervals along the four retinal meridians. The images were exported to a computerised workstation, and the pyknotic photoreceptors were counted in each scanned field. The total number of pyknotic photoreceptors was calculated for each pair of treated and control retinas.
# [7] = tested on: photoreceptors of rd10 mice; test: Rows of photoreceptor nuclei in the outer nuclear layer (ONL) after nanosphere eyedrops; format: in vivo; conditions: rd10 mice aged P24, MYR-SLN treated vs control mouse (FIG. 1a)
# Description: Following ERG recordings, animals were enucleated, their eyes fixed and sectioned and retinal sections stained with fluorescent nuclear dyes to evaluate the thickness of the outer nuclear layer (ONL) and the overall retinal morphology.
# A quantitative analysis of the average number of rows of nuclei in the ONL of MYR-SLN and U-SLN (Unloaded-Solid Lipid Nanospheres) treated mice is given in FIG. 1b.
smiles,measurement,setting,value
CCCCCCC(=O)CCCCCC/C=C/C[C@@H](O)[C@H](O)[C@@](N)(CO)C(=O)O [myriocin],adverse effects of intraocular injections,[1]; rd10 or wt mice,do not cause adverse effects
same,inflammatory response symptoms or increased ocular reactivity,"[1]; treated animals, intraocular injection",no general or local inflammatory response symptoms
same,recovery of ERG response,[2],no recovery of ERG response/reaction
same,retinal ceramide levels,[3],did not significantly reduce
same,morphology of ganglion cells and retinal stratification,[4],excellent maintenance of the morphology of the ganglion cell and structure
same,retinal morphology,[4],normal retinal morphologies
same,retinal ceramide levels vs control (DMSO) eyes,[5],Significantly lower ceramide levels
same,reduction of photoreceptor death rate (pyknotic photoreceptor count),"[6]; rd10 mice injected at P19, collected at P21, vs DMSO eye, n=17",approx. 50%
same,number of pyknotic (dying) photoreceptors,"[6]; rd10 mutant mice, intravitreal injection",marked reduction
same,number of preserved nuclear rows in the ONL,[7],significantly higher
